Counter-ions that a name gives are not always drawn.
Legend:
rabbit aldolase = target: T1, rabbit aldolase (Oryctolagus cuniculus, UniProt P00883); test: aldolase enzyme activity assay, rabbit aldolase; format: biochemical; details: surrogate for human aldolase
T1 sequence (P00883 1-364): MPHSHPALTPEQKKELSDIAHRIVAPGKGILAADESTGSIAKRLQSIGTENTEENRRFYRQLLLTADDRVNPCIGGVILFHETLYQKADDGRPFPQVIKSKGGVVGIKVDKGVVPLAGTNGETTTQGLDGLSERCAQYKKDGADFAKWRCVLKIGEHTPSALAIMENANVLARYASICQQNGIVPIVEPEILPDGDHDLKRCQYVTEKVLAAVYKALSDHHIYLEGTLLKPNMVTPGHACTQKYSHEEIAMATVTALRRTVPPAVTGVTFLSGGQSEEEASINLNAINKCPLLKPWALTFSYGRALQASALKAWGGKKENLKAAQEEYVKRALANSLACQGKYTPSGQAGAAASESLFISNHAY
Excerpt: (§1) FIGS. 16A-16D depict an aldolase enzyme activity assay. (A) Cartoon and surface representation of aldolase with TRAPpep bound (magenta, sticks) (PDB entry 2pc4), overlapping the F16BP (green, sticks) substrate binding site (PDB entry 4ald), via PyMOL. (B) Coupled enzyme assay to measure aldolase activity via NADH consumption as measured at 340 nm. (C) Concentration-dependent effect of compounds on PfAldolase inhibition in the presence of PbTRAP peptide. Activity is normalized to the PbTRAP control, which reduces Vmax to 50% of enzyme without PbTRAP. (D) PfAldolase activity in the presence of compounds to determine direct inhibition of enzyme by the compounds. Activity is normalized to the PfAldolase control measured Vmax. Standard error means plotted for activity assays and standard deviation for SPR data.
(§2) Dose-Dependent Enzymatic Inhibition of Compounds on P. falciparum Aldolase and Rabbit Aldolase as a Surrogate for Human Aldolase.

[1] = target: P. falciparum aldolase in the presence of TRAP (Plasmodium falciparum, UniProt Q7KQL9); test: aldolase enzyme activity assay, P. falciparum aldolase in the presence of TRAP; format: biochemical; details: in the presence of TRAP and the compounds
P. falciparum aldolase in the presence of TRAP, sequence (Q7KQL9 whole entry): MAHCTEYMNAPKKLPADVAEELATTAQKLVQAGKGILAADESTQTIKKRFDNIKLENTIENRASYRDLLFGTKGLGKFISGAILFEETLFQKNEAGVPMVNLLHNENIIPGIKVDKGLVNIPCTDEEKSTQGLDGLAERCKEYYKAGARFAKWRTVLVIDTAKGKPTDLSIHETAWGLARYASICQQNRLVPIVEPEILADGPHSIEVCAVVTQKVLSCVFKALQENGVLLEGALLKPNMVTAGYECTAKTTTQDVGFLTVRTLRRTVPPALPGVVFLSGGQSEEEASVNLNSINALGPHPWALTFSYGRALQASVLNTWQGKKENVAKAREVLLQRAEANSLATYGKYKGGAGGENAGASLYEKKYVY
Excerpt: as §1, §2

P. berghei sporozoites = test: trail radius of gliding sporozoites (ImageJ); format: cell-based; details: 62.5 μM; 130-150 trail radii; p-value <0.0001
Method: The trail radius was measured using ImageJ and the statistical analyses to determine standard error mean and t-test were performed using GraphPad.
The gliding phenotype was altered to determine whether the compounds were having off-target effects. While quantifying the number of deposited trails, the trail diameter in the presence of compounds was altered. An altered trail diameter is more likely due to either a direct effect on the motor or an effect on sporozoite shape. The diameter of the circular trails deposited by the parasites in the DMSO control was measured and in the presence of three compounds at 62.5 μM (FIG. 8). This concentration was chosen because at higher concentrations, there were not enough sporozoite trails to measure to do a statistical analysis of the results. Using ImageJ, circles were fit to trails in multiple images to measure 130-150 trail radii. The average trail radii increased in the presence of compounds 4, 17, and 18 with a p-value <0.0001. The increase in average trail size was 6.3 microns, 2.5 microns, and 3.6, for compounds 4, 17, and 18, respectively.

SMILES | enzyme inhibition on rabbit aldolase (rabbit aldolase) | inhibition of P. falciparum aldolase [1] | increase in average trail size (trail radius) vs DMSO control (P. berghei sporozoites) [microns]
CCN(CC)S(=O)(=O)c1ccc(-c2csc(Nc3ccc(C)c(C)c3)n2)cc1 [Compound 3, 4-{2-[(3,4-dimethylphenyl)amino]-1,3-thiazol-4-yl}-N,N-diethylbenzenesulfonamide hydrobromide] | no enzyme inhibition | inhibited | –
O=C(Nc1ccc(-c2nc3cc4ccccc4cc3[nH]2)cc1)c1cccc(Br)c1 [Compound 17, 3-bromo-N-[4-(1H-naphtho[2,3-d]imidazol-2-yl)phenyl]benzamide] | – | – | 2.5
